Test results from patent US9598433B2, “Hepatitis C virus inhibitors” (BRISTOL-MYERS SQUIBB COMPANY, priority 2012, dated 2017).
Where two headings read alike, the source gives them in different places.

Experiments:
[1] = tested on: HCV genotype 1b (Con1) replicon in HUH-7 cells; experiment: HCV replicon luciferase reporter assay, genotype 1b; format: cell-based; conditions: Hepatitis C virus, 72 h, genotype 1b replicon, 3 days incubation
Summary of the method: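 Replication was read as Renilla luciferase signal, using 7.5 μM EnduRen substrate with a 2-h incubation at 37 °C. The signal came from a HUH-7 line constitutively expressing a luciferase-tagged 1b (Con1) replicon carrying S1179I.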

[2] = tested on: HCV genotype 1a (H77 strain) replicon in HUH-7 cells; experiment: HCV replicon luciferase reporter assay, genotype 1a; format: cell-based; conditions: Hepatitis C virus, 72 h, genotype 1a replicon, 3 days incubation
Summary of the method: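 Stable HUH-7 line carrying luciferase-reporter genotype 1a (H77) replicon with adaptive NS3 P1496L and NS5A S2204I mutations; 3.0×10^3 cells/well in 4% FCS, 0.5% DMSO, twenty-point 3-fold titration, 3 days at 37 °C. Renilla luminescence with 7.5 μM EnduRen; EC50 by four-parameter logistic fit; CC50 by multiplexed Cell Titer-Blue.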

Row | SMILES | EC50 ([1]; read-out: LE_1b (EC50)) | EC50 ([1]; read-out: LE_1b (EC50, range)) | EC50 ([2]; read-out: LE_1a (EC50)) | EC50 ([2]; read-out: LE_1a (EC50, range))
1 | COc1ccc2c(O[C@@H]3C[C@H]4C(=O)N[C@]5(C(=O)NS(=O)(=O)C6(CF)CC6)C[C@H]5/C=C\CC[C@@H](C)O[C@@H](C)[C@H](NC(=O)OC(C)(C)C(C)(F)F)C(=O)N4C3)nccc2c1 [Compound 2014, 3,3-difluoro-2-methylbutan-2-yl ((2R,6S,7S,9R,13aS,14aR,16aS,Z)-14a-(((1-(fluoromethyl)cyclopropyl)sulfonyl)carbamoyl)-2-((6-methoxyisoquinolin-1-yl)oxy)-7,9-dimethyl-5,16-dioxo-2,3,5,6,7,9,10,11,13a,14,14a,15,16,16a-tetradecahydro-1H-cyclopropa[i]pyrrolo[1,2-e][1,5,8]oxadiazacyclopentadecin-6-yl)carbamate] | 0.66 nM | 0.51 to 1 nM | 2.38 nM | 1.01 to 5 nM
2 | COc1cnc(O[C@@H]2C[C@H]3C(=O)N[C@]4(C(=O)NS(=O)(=O)C5(CF)CC5)C[C@H]4/C=C\CC[C@@H](C)O[C@@H](C)[C@H](NC(=O)OC(C)(C)C(F)(F)F)C(=O)N3C2)c2ccccc12 [Compound 2015, 1,1,1-trifluoro-2-methylpropan-2-yl ((2R,6S,7S,9R,13a5,14aR,16aS,Z)-14a-(((1-(fluoromethyl)cyclopropyl)sulfonyl)carbamoyl)-2-((4-methoxyisoquinolin-1-yl)oxy)-7,9-dimethyl-5,16-dioxo-2,3,5,6,7,9,10,11,13a,14,14a,15,16,16a-tetradecahydro-1H-cyclopropa[i]pyrrolo[1,2-e][1,5,8]oxadiazacyclopentadecin-6-yl)carbamate] |  | 0.51 to 1 nM |  | 1.01 to 5 nM
3 | COc1cnc(O[C@@H]2C[C@H]3C(=O)N[C@]4(C(=O)NS(=O)(=O)C5(CF)CC5)C[C@H]4/C=C\CC[C@@H](C)O[C@@H](C)[C@H](NC(=O)OC(C)(C)C(F)F)C(=O)N3C2)c2ccccc12 [Compound 2016, 1,1-difluoro-2-methylpropan-2-yl ((2R,6S,7S,9R,13aS,14aR,16aS,Z)-14a-(((1-(fluoromethyl)cyclopropyl)sulfonyl)carbamoyl)-2-((4-methoxyisoquinolin-1-yl)oxy)-7,9-dimethyl-5,16-dioxo-2,3,5,6,7,9,10,11,13a,14,14a,15,16,16a-tetradecahydro-1H-cyclopropa[i]pyrrolo[1,2-e][1,5,8]oxadiazacyclopentadecin-6-yl)carbamate] |  | 0.51 to 1 nM |  | 1.01 to 5 nM
4 | COc1cc(F)cc2c(O[C@@H]3C[C@H]4C(=O)N[C@]5(C(=O)NS(=O)(=O)C6(C)CC6)C[C@H]5/C=C\CC[C@@H](C)O[C@@H](C)[C@H](NC(=O)OC(C)(C)C(F)(F)F)C(=O)N4C3)nccc12 [Compound 2017, 1,1,1-trifluoro-2-methylpropan-2-yl ((2R,6S,7S,9R,13aS,14aR,16aS,Z)-2-((7-fluoro-5-methoxyisoquinolin-1-yl)oxy)-7,9-dimethyl-14a-(((1-methylcyclopropyl)sulfonyl)carbamoyl)-5,16-dioxo-2,3,5,6,7,9,10,11,13a,14,14a,15,16,16a-tetradecahydro-1H-cyclopropa[i]pyrrolo[1,2-e][1,5,8]oxadiazacyclopentadecin-6-yl)carbamate] | 0.42 nM | 0.1 to 0.5 nM | 0.89 nM | 0.51 to 1 nM
5 | COc1cc(F)cc2c(O[C@@H]3C[C@H]4C(=O)N[C@]5(C(=O)NS(=O)(=O)C6(C)CC6)C[C@H]5/C=C\CC[C@@H](C)O[C@@H](C)[C@H](NC(=O)OC(C)(C)C(C)(F)F)C(=O)N4C3)nccc12 [Compound 2018, 3,3-difluoro-2-methylbutan-2-yl ((2R,6S,7S,9R,13aS,14aR,16aS,Z)-2-((7-fluoro-5-methoxyisoquinolin-1-yl)oxy)-7,9-dimethyl-14a-(((1-methylcyclopropyl)sulfonyl)carbamoyl)-5,16-dioxo-2,3,5,6,7,9,10,11,13a,14,14a,15,16,16a-tetradecahydro-1H-cyclopropa[i]pyrrolo[1,2-e][1,5,8]oxadiazacyclopentadecin-6-yl)carbamate] |  | 0.1 to 0.5 nM |  | 0.51 to 1 nM
6 | COc1cc(F)cc2c(O[C@@H]3C[C@H]4C(=O)N[C@]5(C(=O)NS(=O)(=O)C6(C)CC6)C[C@H]5/C=C\CC[C@@H](C)O[C@@H](C)[C@H](NC(=O)OC(C)(C)C(F)F)C(=O)N4C3)nccc12 [Compound 2019, 1,1-difluoro-2-methylpropan-2-yl ((2R,6S,7S,9R,13aS,14aR,16aS,Z)-2-((7-fluoro-5-methoxyisoquinolin-1-yl)oxy)-7,9-dimethyl-14a-(((1-methylcyclopropyl)sulfonyl)carbamoyl)-5,16-dioxo-2,3,5,6,7,9,10,11,13a,14,14a,15,16,16a-tetradecahydro-1H-cyclopropa[i]pyrrolo[1,2-e][1,5,8]oxadiazacyclopentadecin-6-yl)carbamate] |  | 0.51 to 1 nM |  | 1.01 to 5 nM
7 | COc1cc(F)cc2c(O[C@@H]3C[C@H]4C(=O)N[C@]5(C(=O)NS(=O)(=O)C6(CF)CC6)C[C@H]5/C=C\CC[C@@H](C)O[C@@H](C)[C@H](NC(=O)OC(C)(C)C(F)(F)F)C(=O)N4C3)nccc12 [Compound 2020, 1,1,1-trifluoro-2-methylpropan-2-yl ((2R,6S,7S,9R,13aS,14aR,16aS,Z)-2-((7-fluoro-5-methoxyisoquinolin-1-yl)oxy)-14a-(((1-(fluoromethyl)cyclopropyl)sulfonyl)carbamoyl)-7,9-dimethyl-5,16-dioxo-2,3,5,6,7,9,10,11,13a,14,14a,15,16,16a-tetradecahydro-1H-cyclopropa[i]pyrrolo[1,2-e][1,5,8]oxadiazacyclopentadecin-6-yl)carbamate] |  | 0.51 to 1 nM |  | 1.01 to 5 nM
8 | COc1cc(F)cc2c(O[C@@H]3C[C@H]4C(=O)N[C@]5(C(=O)NS(=O)(=O)C6(CF)CC6)C[C@H]5/C=C\CC[C@@H](C)O[C@@H](C)[C@H](NC(=O)OC(C)(C)C(C)(F)F)C(=O)N4C3)nccc12 [Compound 2021, 3,3-difluoro-2-methylbutan-2-yl ((2R,6S,7S,9R,13aS,14aR,16aS,Z)-2-((7-fluoro-5-methoxyisoquinolin-1-yl)oxy)-14a-(((1-(fluoromethyl)cyclopropyl)sulfonyl)carbamoyl)-7,9-dimethyl-5,16-dioxo-2,3,5,6,7,9,10,11,13a,14,14a,15,16,16a-tetradecahydro-1H-cyclopropa[i]pyrrolo[1,2-e][1,5,8]oxadiazacyclopentadecin-6-yl)carbamate] |  | 0.51 to 1 nM |  | 1.01 to 5 nM
9 | COc1cc(F)cc2c(O[C@@H]3C[C@H]4C(=O)N[C@]5(C(=O)NS(=O)(=O)C6(CF)CC6)C[C@H]5/C=C\CC[C@@H](C)O[C@@H](C)[C@H](NC(=O)OC(C)(C)C(F)F)C(=O)N4C3)nccc12 [Compound 2022, 1,1-difluoro-2-methylpropan-2-yl ((2R,6S,7S,9R,13aS,14aR,16aS,Z)-2-((7-fluoro-5-methoxyisoquinolin-1-yl)oxy)-14a-(((1-(fluoromethyl)cyclopropyl)sulfonyl)carbamoyl)-7,9-dimethyl-5,16-dioxo-2,3,5,6,7,9,10,11,13a,14,14a,15,16,16a-tetradecahydro-1H-cyclopropa[i]pyrrolo[1,2-e][1,5,8]oxadiazacyclopentadecin-6-yl)carbamate] |  | 1.01 to 5 nM |  | 1.01 to 5 nM
10 | CC[C@@H]1O[C@H](C)CC/C=C\[C@@H]2C[C@@]2(C(=O)NS(=O)(=O)C2(C)CC2)NC(=O)[C@@H]2C[C@@H](Oc3nc4c(c5ccccc35)CCCO4)CN2C(=O)[C@H]1NC(=O)OC(C)(C)C(C)(F)F [Compound 2301, 3,3-difluoro-2-methylbutan-2-yl ((2R,6S,7S,9R,13aS,14aR,16aS,Z)-2-((2,3-dihydro-1H-pyrano[2,3-c]isoquinolin-6-yl)oxy)-7-ethyl-9-methyl-14a-(((1-methylcyclopropyl)sulfonyl)carbamoyl)-5,16-dioxo-2,3,5,6,7,9,10,11,13a,14,14a,15,16,16a-tetradecahydro-1H-cyclopropa[i]pyrrolo[1,2-e][1,5,8]oxadiazacyclopentadecin-6-yl)carbamate] |  | 0.1 to 0.5 nM |  | 0.51 to 1 nM
11 | CC[C@@H]1O[C@H](C)CC/C=C\[C@@H]2C[C@@]2(C(=O)NS(=O)(=O)C2(C)CC2)NC(=O)[C@@H]2C[C@@H](Oc3nc4c(c5ccccc35)CCCO4)CN2C(=O)[C@H]1NC(=O)OC(C)(C)C(F)(F)F [Compound 2302, 1,1,1-trifluoro-2-methylpropan-2-yl ((2R,6S,7S,9R,13aS,14aR,16aS,Z)-2-((2,3-dihydro-1H-pyrano[2,3-c]isoquinolin-6-yl)oxy)-7-ethyl-9-methyl-14a-(((1-methylcyclopropyl)sulfonyl)carbamoyl)-5,16-dioxo-2,3,5,6,7,9,10,11,13a,14,14a,15,16,16a-tetradecahydro-1H-cyclopropa[i]pyrrolo[1,2-e][1,5,8]oxadiazacyclopentadecin-6-yl)carbamate] |  | 0.1 to 0.5 nM |  | 0.51 to 1 nM
12 | C[C@@H]1CC/C=C\[C@@H]2C[C@@]2(C(=O)NS(=O)(=O)C2(C)CC2)NC(=O)[C@@H]2C[C@@H](Oc3nc4c(c5ccccc35)CCCO4)CN2C(=O)[C@@H](NC(=O)OC(C)(C)C(C)(F)F)[C@H](C)O1 [Compound 2303, 3,3-difluoro-2-methylbutan-2-yl ((2R,6S,7S,9R,13aS,14aR,16aS,Z)-2-((2,3-dihydro-1H-pyrano[2,3-c]isoquinolin-6-yl)oxy)-7,9-dimethyl-14a-(((1-methylcyclopropyl)sulfonyl)carbamoyl)-5,16-dioxo-2,3,5,6,7,9,10,11,13a,14,14a,15,16,16a-tetradecahydro-1H-cyclopropa[i]pyrrolo[1,2-e][1,5,8]oxadiazacyclopentadecin-6-yl)carbamate] |  | 0.51 to 1 nM |  | 0.51 to 1 nM
